Test results published in patent US20200157508A1, “SYSTEMS AND METHODS FOR GROWTH OF INTESTINAL CELLS” (CEDARS-SINAI MEDICAL CENTER, priority 2017, published 2020).

Tests used:
[1] = tested on: HIO-derived intestinal epithelial cells; assay: Western blot of STAT1 phosphorylation in Intestine-Chip exposed to IFNγ; format: cell-based, human; conditions: 10-1000 ng/ml in lower channel for one hour
Method: (§1) FIG. 3. a) Western blot analysis showing phosphorylation of STAT1 in Chips containing either HIO-derived intestinal epithelial or Caco2 cells in response to exposure of increasing concentrations (0-1000 ng/ml) of IFNγ in the lower channel for 1 hour. Both GAPDH and STAT1 were used as loading controls. Image J analysis was used to quantify levels of phosphorylation of STAT1 compared to GAPDH b) Quantitative reverse transcription-polymerase chain reaction analyses of IDO1 and GBP1 and c) PLA2G2a, Muc4, lysozyme, Reg3γin Chips incorporating either HIO-derived epithelial or Caco2 cells in response to exposure of 10 ng/ml of IFNγ in the lower channel for 3 days. Three independent experiments were carried out; data represent mean and s.e.m; *P<0.05, **P<0.01 compared to respective untreated controls. […] Two independent experiments were carried out; data represent mean±SEM. **P<0.01. AUC, area under the curve; CTL, control; GAPDH, glyceraldehyde-3-phosphate dehydrogenase.
(§2) PBS was flushed through both the upper and lower channels and total protein was extracted in situ using cell lysis buffer (Cell Signaling cat #9803s) supplemented with protease and […] inhibitor (Sigma, # MSSAFE). Protein concentration was then determined and equal amounts of protein lysates were heat denatured and separated on a 10% mini-protean precast gel (Bio-Rad, #456-8034). […]

[2] = tested on: Caco2 cells; assay: Western blot of STAT1 phosphorylation in Caco2 Chip exposed to IFNγ; format: cell-based; conditions: 10-1000 ng/ml in lower channel for one hour
Method: as §1, §2

[3] = tested on: HIO-derived epithelial cells; assay: qRT-PCR gene expression in Intestine-Chip exposed to IFNγ; format: cell-based, human
Method: as §1
(§3) PBS was flushed through both the upper and lower channels and total RNA from the Intestine-Chip was extracted in situ with the RNeasy mini kit (Qiagen, USA). cDNA was generated from 1 μg of RNA using the Omniscript RT Kit (Qiagen). qRT-PCR was performed using SYBR® Select Master Mix (Applied Biosystems) on a BioRad CFX384 Real-Time System. Primer sequences as follows:
(§4) As Caco2 cells are routinely used to assess intestinal epithelial responses and have previously been incorporated into Chips, the Inventors also included these in the Inventors' studies to directly compare the Intestine-Chip. […] Thus both cell types were incubated with 10 ng/ml of IFNγ for 3 days and assessed for upregulation of indoleamine 2 3-dioxygenase (IDO1) and guanylate binding protein 1 (GBP1).

[4] = tested on: Caco2 cells; assay: qRT-PCR gene expression in Caco2 Chip exposed to IFNγ; format: cell-based; conditions: 10 ng/ml for 3 days
Method: as §1, §3, §4

[5] = 10 ng/ml in lower channel for 3 days
[6] = attenuated in comparison to HIO-epithelial cells

Substance: IFNγ: a cytokine known to be upregulated in IBD
- phosphorylation of STAT1 [1]: robust phosphorylation of STAT1
- phosphorylation of STAT1 [2]: robust phosphorylation of STAT1
- Muc4 expression ([3]; 10 ng/ml for 3 days): significant upregulation
- PLA2G2a expression ([3]; 10 ng/ml for 3 days): significant upregulation
- Reg3γ expression ([3]; 10 ng/ml for 3 days): no differences
- lysozyme expression ([3]; 10 ng/ml for 3 days): no differences
- GBP1 expression vs controls [3, 5]: significant increase
- IDO1 expression vs controls [3, 5]: significant increase
- expression of PLA2G2a, Muc4, lysozyme, Reg3γ [4]: did not observe any significant upregulation
- GBP1 expression vs controls [4, 6]: significant upregulation
- IDO1 expression vs controls [4, 6]: significant upregulation
